Literature values as cited in patent publication US20120309722A1, “THERAPEUTIC REGIMENS FOR THE TREATMENT OF IMMUNOINFLAMMATORY DISORDERS” (priority 2007, published 2012).

Columns and labels:
[1] = BNF guidelines; for Equivalent Dose to Prednisolone: Equal to 1 mg prednisolone: dose equivalent to 1 mg prednisolone; for Equivalent Dose to Prednisolone: Equal to 5 mg prednisolone: dose equivalent to 5 mg prednisolone
[2] = nasal administration; BNF 37 March 1999

CC(=O)OCC(=O)[C@@]1(O)CC[C@H]2[C@@H]3CCC4=CC(=O)CC[C@]4(C)[C@H]3C(=O)C[C@@]21C [cortisone acetate]
Equivalent Dose to Prednisolone: Equal to 1 mg prednisolone [1]: 5 mg
Equivalent Dose to Prednisolone: Equal to 5 mg prednisolone [1]: 25 mg

CC(=O)OCC(=O)[C@@]12N=C(C)O[C@@H]1C[C@H]1[C@@H]3CCC4=CC(=O)C=C[C@]4(C)[C@H]3[C@@H](O)C[C@@]12C [deflazacort]
Equivalent Dose to Prednisolone: Equal to 1 mg prednisolone [1]: 1.2 mg
Equivalent Dose to Prednisolone: Equal to 5 mg prednisolone [1]: 6 mg

C[C@]12CCC(=O)C=C1CC[C@@H]1[C@@H]2[C@@H](O)C[C@@]2(C)[C@H]1CC[C@]2(O)C(=O)CO [hydrocortisone]
Equivalent Dose to Prednisolone: Equal to 1 mg prednisolone [1]: 4 mg
Equivalent Dose to Prednisolone: Equal to 5 mg prednisolone [1]: 20 mg

C[C@]12C=CC(=O)C=C1CC[C@H]1[C@@H]3C[C@@H](O)[C@](O)(C(=O)CO)[C@@]3(C)C[C@H](O)[C@@]12F [triamcinolone]
Equivalent Dose to Prednisolone: Equal to 1 mg prednisolone [1]: 0.8 mg
Equivalent Dose to Prednisolone: Equal to 5 mg prednisolone [1]: 4 mg
broadly similar dose from clinical dosing equivalence [2]: 110 µg

methyl prednisone
Equivalent Dose to Prednisolone: Equal to 1 mg prednisolone [1]: 0.8 mg
Equivalent Dose to Prednisolone: Equal to 5 mg prednisolone [1]: 4 mg
